Experiments:
[1] = system: human cord blood CD45+ cells; test: Flow cytograms of cord blood CD45+ cells cultured 14 days with IL3, IL6, G-CSF, Epo and KL; assay type: cell-based; conditions: 5 μg/ml, FIG. 10
Description: (§1) FIGS. 9(A-F). Flow cytograms. […] Cord blood CD45+ cells were cultured for 14 days with cytokines IL3, IL6, G-CSF, Epo and KL. Percentages indicated on each cytogram indicate the percentage of the cell population expressing a particular combination of markers. A. Control, immunoglobulin (Ig). B. Control, no compound added. C. DMSO (5 μg/ml). D. Thal (5 μg/ml). E. ACTIMID™ (5 μg/ml). F. REVIMID™ (5 μg/ml). X-axis: relative intensity of CD38 (FL1-H) staining. Y-axis: relative intensity of CD19 (FL2-H) staining. See Section 6.3 for details.
as §1, with “10(A-F).” for “9(A-F).”, “CXCR5” for “CD38”, “CD34” for “CD19”

[2] = system: Human Cord Blood CD34+ Cells; test: FACS analysis of proliferation and differentiation of cord blood CD34+ cells cultured with IL3, G-CSF and Kit-ligand; assay type: cell-based; conditions: for CD11b+ Cell Population / CD34+CD38+ Cell Population / CD34+CD38− Cell Population: 7 days
Description: CB CD34+ cells were initiated at 4×10^4 cells/ml in a 24-well plate in 20% FCS IMDM (fetal calf serum/Iscove's Modified Dulbecco's Medium) supplemented with cytokines (1 L3, GCSF and Kit-ligand) (R&D Systems, Inc.). Thalidomide (Thal), ACTIMID™ or REVIMID™ were included in the culture at three different concentrations: 5 μg/ml, 1 μg/ml and 0.3 μg/ml. The same volumes of DMSO were used as controls. A negative control without, any compound was also used (indicated by “none” in FIGS. 3-7). Cells were cultured at 37° C. and 5% CO2 in a humidified incubator for 7 days. Cells were then harvested from each well.
The total cell number from each well was determined by counting in a CELL-DYN® 1700 (Abbott Diagnostics) and the expression of CXCR4, CD45, CD34, CD38, CD 1 lb and Gly-A expression was analyzed by FACS (fluorescence-activated cell sorting) staining (FIGS. 3-7).
CB cells from two different donors (CB2276 and CB2417) were cultured, assayed and analyzed separately (Table 1).

[3] = system: Human Cord Blood MNC Cells; test: FACS analysis of cryopreserved and thawed cord blood MNCs after 1 week of culture with cytokines; assay type: cell-based; conditions: 5 μg in 1.7 μl DMSO, average +/− SD of three wells
Description: Cord blood MNCs that had been cryopreserved and thawed using standard methods were isolated by standard Ficoll separation method and cultured in 24 well-plate at 0.5×10^6 cells/ml in 20% FCS-IMDM with cytokines (1L6, KL and G-CSF 10 ng/ml each) in triplicates. The experimental groups were None (cytokines only), DMSO (1.7 μl), ACTIMID™ (5.0 μg in 1.7 μl DMSO), REVIMID™ (5 μg in 1.7 μl DMSO). The cultured cells were harvested and analyzed by FACS staining after 1 week of culture. The data are expressed as an average +/− SD from three independent wells.

[4] = system: Cord blood CD34+ hematopoietic progenitor cells; test: Colony forming unit (CFU) generation from cord blood CD34+ cells; assay type: cell-based, human; conditions: IL-3, G-CSF, kit-ligand, vs DMSO
Description: FIG. 1. Bar graph indicating results of culturing cord blood CD34+ cells in the presence of Thalidomide (THD), ACTIMID™, and REVIMID™ at concentrations of 1 μg/ml and 10 μg/ml. An equal volume of DMSO was used as a negative control. Hematopoietic colonies of burst forming units-erythroid (BFU-E), colony forming units-erythroid (CFU-E), colony forming units-granulocyte macrophage (CFU-GM) and total numbers of colonies (CFU-Total) were scored under the light microscope at day 14 of culture. Y-axis: numbers of colonies. See Section 6.1 for details.
Cord blood CD34+ hematopoietic progenitor cells were plated in 96 well cultivation dishes at a density of 1000 cells per well in IMDM supplemented with 20% fetal calf serum and cytokines (IL-3, G-CSF and kit-ligand (R&D Systems, Inc.) The cells were exposed to Thalidomide (Thal), ACTIMID™ and REVIMID™, or DMSO (a control compound), and allowed to culture for 6 days. […] After culturing, cells were stained and sorted with a fluorescence activated. cell sorter (FACS). 400 μL of stained cells were harvested and diluted to 1.0 ml with 1% fetal calf serum in phosphate buffered saline (PBS). Cells were counted to determine the effect of modulation of stem cell differentiation.

[5] = system: Purified human cord blood CD34+ cells; test: Monocyte production: CD34/CD14 staining of cord blood CD34+ cells cultured 14 days with cytokines; assay type: cell-based
Description: Purified human cord blood CD34+ cells (greater than 90% CD34+) were cultured in 20% FCS IMDM medium supplemented with cytokines (IL3, IL6, G-CSF, KL and Epo) at 4×10^4 cells/ml for 14 days at 37° C. in a humidified 5% CO2 incubator. The experimental groups consisted of a group in which (i) no DMSO or chemical compounds were added (“None”), (ii) DMSO only, (iii) Thalidomide dissolved in DMSO, (iv) ACTIMID™ dissolved in DMSO, and (v) REVIMID™ dissolved in DMSO. Aliquots of cells were harvested and stained with CD34-PE conjugated monoclonal antibody and CD14-FITC conjugated monoclonal antibody.

Nc1cccc2c1CN(C1CCC(=O)NC1=O)C2=O (stereo not drawn) [REVIMID™, 3-(4-amino-1-oxo-1,3-dihydro-isoindol-2-yl)-piperidine-2,6-dione]
repression of CXCR5 produced by exposure to DMSO [1]: overcomes the repression | expression of CXCR4 ([2]; FACS analysis of surface proteins): inhibitory effect | yield of cells ([2]; IL-3, KL and G-CSF, compared with the DMSO control): slightly higher number of cells | effect on the proliferation of CD34+ cells ([2]; IL-3, KL and G-CSF, compared with the negative control (none)): do not have a significant effect | CD11b+ Cell Population ([2]; donor CB2276, 0.3 μg/ml): 13.3% | CD34+CD38+ Cell Population ([2]; donor CB2276, 0.3 μg/ml): 1.7 | CD34+CD38− Cell Population ([2]; donor CB2276, 0.3 μg/ml): 9.8 | CD11b+ Cell Population ([2]; donor CB2276, 1 μg/ml): 8.6% | CD34+CD38+ Cell Population ([2]; donor CB2276, 1 μg/ml): 1 | CD34+CD38− Cell Population ([2]; donor CB2276, 1 μg/ml): 10.3 | CD11b+ Cell Population ([2]; donor CB2276, 5 μg/ml): 4.8% | CD34+CD38+ Cell Population ([2]; donor CB2276, 5 μg/ml): 0.3 | CD34+CD38− Cell Population ([2]; donor CB2276, 5 μg/ml): 4.0 | CD11b+ Cell Population ([2]; donor CB2417, 0.3 μg/ml): 11.2% | CD34+CD38+ Cell Population ([2]; donor CB2417, 0.3 μg/ml): 0.9 | CD34+CD38− Cell Population ([2]; donor CB2417, 0.3 μg/ml): 3.4 | CD11b+ Cell Population ([2]; donor CB2417, 1 μg/ml): 8.2% | CD34+CD38+ Cell Population ([2]; donor CB2417, 1 μg/ml): 0.6 | CD34+CD38− Cell Population ([2]; donor CB2417, 1 μg/ml): 3.8 | CD11b+ Cell Population ([2]; donor CB2417, 5 μg/ml): 5.5% | CD34+CD38+ Cell Population ([2]; donor CB2417, 5 μg/ml): 0.3 | CD34+CD38− Cell Population ([2]; donor CB2417, 5 μg/ml): 4.2 | CD38 status of the majority of CD34+ and CD34− cells ([2]; treated cell populations): CD38− | level of CD11b expression by mean immunofluorescence (MIF) ([2]; treated cells): decreased | CD34(%) [3]: 2.34 +/− 0.22% | CD34+CD38−(%) [3]: 0.80 +/− 0.29% | CXCR4+CD45+(%) [3]: 3.6 +/− 0.9% | CXCR4+CD45−(%) [3]: 3.28 +/− 0.89% | Total CD34+ cells [3]: 7166 +/− 802 | Total cells (1 × 10^6) [3]: 0.30 +/− 0 1 × 10^6 | generation of erythropoietic colonies (BFU-E and CFU-E) [4]: suppress | generation of leukocyte and platelet forming colonies (CFU-GM) [4]: augmenting | total colony forming unit (CFU-Total) production [4]: enhancing | percentage of monocyte lineage cells ([5]; 5 μg/ml, compared to control, FIG. 13): increase | percentage of CD34+ cells of the total cells ([5]; 14 days, IL3, IL6, G-CSF, KL and Epo, compound dissolved in DMSO): 7.1% | production of monocytes (CD14+ cells) ([5]; 14 days, relative to DMSO-treated group): overcome
